# Source: patent US9975878B2, “Substituted triazine BMI-1 inhibitors” (PTC Therapeutics, Inc., priority 2013, dated 2018)
# Tested on: Bmi-1 protein
# Assay: Sandwich ELISA Assay: Bmi-1 protein level in HT-1080 cells treated with test compounds
# Type: cell-based
# Summary of the method: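 HT-1080 cells exposed to compounds (final DMSO 0.5%) for 40-48 h at 37° C, 5% CO2, then lysed. Bmi-1 quantified by sandwich ELISA (mouse anti-Bmi-1 capture, rabbit anti-Bmi-1 detection, HRP anti-rabbit, TMB), read at OD450 with OD570 reference, against recombinant GST-Bmi-1 standard curve (0-8000 pg/mL).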
row,EC50 [µM],Compound
1,0.1 to 3,"CCc1nc2ccccc2n1-c1nc(N)nc(Nc2cccc(C)c2)n1 [Cpd 161, 6-(2-ethyl-1H-benzimidazol-1-yl)-N-(3-methylphenyl)-1,3,5-triazine-2,4-diamine]"
2,0.01 to 0.1,"CCc1nc2ccccc2n1-c1nc(N)nc(Nc2ccc(Cl)cc2)n1 [Cpd 162, N-(4-chlorophenyl)-6-(2-ethyl-1H-benzimidazol-1-yl)-1,3,5-triazine-2,4-diamine]"
3,0.1 to 3,"CCc1nc2ccccc2n1-c1nc(N)nc(Nc2ccc(C#N)cc2)n1 [Cpd 163, 4-{[4-amino-6-(2-ethyl-1H-benzimidazol-1-yl)-1,3,5-triazin-2-yl]amino}benzonitrile]"
4,0.001 to 0.01,"COc1ccc(Nc2nc(N)nc(-n3c(C)nc4ccc(F)cc43)n2)cc1 [Cpd 164, 6-(6-fluoro-2-methyl-1H-benzimidazol-1-yl)-N-(4-methoxyphenyl)-1,3,5-triazine-2,4-diamine]"
5,0.001 to 0.01,"Cc1ccc(Nc2nc(N)nc(-n3c(C)nc4ccc(F)cc43)n2)cc1 [Cpd 165, 6-(6-fluoro-2-methyl-1H-benzimidazol-1-yl)-N-(4-methylphenyl)-1,3,5-triazine-2,4-diamine]"
6,0.01 to 0.1,"Cc1nc2ccc(F)cc2n1-c1nc(N)nc(Nc2ccc(Cl)cc2)n1 [Cpd 166, N-(4-chlorophenyl)-6-(6-fluoro-2-methyl-1H-benzimidazol-1-yl)-1,3,5-triazine-2,4-diamine]"
7,0.1 to 3,"Cc1nc2ccccc2n1-c1nc(N)nc(Nc2ccc(C(C)C)cc2)n1 [Cpd 167, 6-(2-methyl-1H-benzimidazol-1-yl)-N-[4-(propan-2-yl)phenyl]-1,3,5-triazine-2,4-diamine]"
8,0.001 to 0.01,"CCc1nc2ccc(F)cc2n1-c1nc(N)nc(Nc2ccc(OC)cc2)n1 [Cpd 168, 6-(2-ethyl-6-fluoro-1H-benzimidazol-1-yl)-N-(4-methoxyphenyl)-1,3,5-triazine-2,4-diamine]"
9,0.001 to 0.01,"CCc1nc2ccc(F)cc2n1-c1nc(N)nc(Nc2ccc(C)cc2)n1 [Cpd 169, 6-(2-ethyl-6-fluoro-1H-benzimidazol-1-yl)-N-(4-methylphenyl)-1,3,5-triazine-2,4-diamine]"
10,0.01 to 0.1,"CCc1nc2ccc(F)cc2n1-c1nc(N)nc(Nc2ccc(Cl)cc2)n1 [Cpd 170, N-(4-chlorophenyl)-6-(2-ethyl-6-fluoro-1H-benzimidazol-1-yl)-1,3,5-triazine-2,4-diamine]"
11,0.1 to 3,"CCc1nc2ccc(F)cc2n1-c1nc(N)nc(Nc2ccc(OC(F)(F)F)cc2)n1 [Cpd 171, 6-(2-ethyl-6-fluoro-1H-benzimidazol-1-yl)-N-[4-(trifluoromethoxy)phenyl]-1,3,5-triazine-2,4-diamine]"
12,0.1 to 3,"Cc1nc2ccc(F)cc2n1-c1nc(N)nc(Nc2ccc(OC(F)(F)F)cc2)n1 [Cpd 172, 6-(6-fluoro-2-methyl-1H-benzimidazol-1-yl)-N-[4-(trifluoromethoxy)phenyl]-1,3,5-triazine-2,4-diamine]"
13,0.001 to 0.01,"CCc1nc2cc(F)ccc2n1-c1nc(N)nc(Nc2ccc(OC)cc2)n1 [Cpd 173, 6-(2-ethyl-5-fluoro-1H-benzimidazol-1-yl)-N-(4-methoxyphenyl)-1,3,5-triazine-2,4-diamine]"
14,0.01 to 0.1,"CCc1nc2cc(F)ccc2n1-c1nc(N)nc(Nc2ccc(C)cc2)n1 [Cpd 174, 6-(2-ethyl-5-fluoro-1H-benzimidazol-1-yl)-N-(4-methylphenyl)-1,3,5-triazine-2,4-diamine]"
15,0.1 to 3,"CCc1nc2cc(F)ccc2n1-c1nc(N)nc(Nc2ccc(Cl)cc2)n1 [Cpd 175, N-(4-chlorophenyl)-6-(2-ethyl-5-fluoro-1H-benzimidazol-1-yl)-1,3,5-triazine-2,4-diamine]"
16,0.01 to 0.1,"COc1ccc(Nc2nc(N)nc(-n3c(C4CC4)nc4ccc(F)cc43)n2)cc1 [Cpd 176, 6-(2-cyclopropyl-6-fluoro-1H-benzimidazol-1-yl)-N-(4-methoxyphenyl)-1,3,5-triazine-2,4-diamine]"
17,0.001 to 0.01,"Cc1ccc(Nc2nc(N)nc(-n3c(C4CC4)nc4ccc(F)cc43)n2)cc1 [Cpd 177, 6-(2-cyclopropyl-6-fluoro-1H-benzimidazol-1-yl)-N-(4-methylphenyl)-1,3,5-triazine-2,4-diamine]"
18,0.01 to 0.1,"Nc1nc(Nc2ccc(Cl)cc2)nc(-n2c(C3CC3)nc3ccc(F)cc32)n1 [Cpd 178, N-(4-chlorophenyl)-6-(2-cyclopropyl-6-fluoro-1H-benzimidazol-1-yl)-1,3,5-triazine-2,4-diamine]"
19,0.001 to 0.01,"COc1ccc(Nc2nc(N)nc(-n3c(C)nc4c(F)cccc43)n2)cc1 [Cpd 179, 6-(4-fluoro-2-methyl-1H-benzimidazol-1-yl)-N-(4-methoxyphenyl)-1,3,5-triazine-2,4-diamine]"
20,0.001 to 0.01,"Cc1ccc(Nc2nc(N)nc(-n3c(C)nc4c(F)cccc43)n2)cc1 [Cpd 180, 6-(4-fluoro-2-methyl-1H-benzimidazol-1-yl)-N-(4-methylphenyl)-1,3,5-triazine-2,4-diamine]"

row,EC50 [µM],Compound
1,0.1 to 3,"Cc1nc2c(F)cccc2n1-c1nc(N)nc(Nc2ccc(Cl)cc2)n1 [Cpd 181, N-(4-chlorophenyl)-6-(4-fluoro-2-methyl-1H-benzimidazol-1-yl)-1,3,5-triazine-2,4-diamine]"
2,0.001 to 0.01,"COc1ccc(Nc2nc(N)nc(-n3c(C4CC4)nc4c(F)cccc43)n2)cc1 [Cpd 182, 6-(2-cyclopropyl-4-fluoro-1H-benzimidazol-1-yl)-N-(4-methoxyphenyl)-1,3,5-triazine-2,4-diamine]"
3,0.01 to 0.1,"Cc1ccc(Nc2nc(N)nc(-n3c(C4CC4)nc4c(F)cccc43)n2)cc1 [Cpd 183, 6-(2-cyclopropyl-4-fluoro-1H-benzimidazol-1-yl)-N-(4-methylphenyl)-1,3,5-triazine-2,4-diamine]"
4,0.01 to 0.1,"Nc1nc(Nc2ccc(Cl)cc2)nc(-n2c(C3CC3)nc3c(F)cccc32)n1 [Cpd 184, N-(4-chlorophenyl)-6-(2-cyclopropyl-4-fluoro-1H-benzimidazol-1-yl)-1,3,5-triazine-2,4-diamine]"
5,0.001 to 0.01,"COc1ccc(Nc2nc(N)nc(-n3c(C)nc4c(F)cc(F)cc43)n2)cc1 [Cpd 185, 6-(4,6-difluoro-2-methyl-1H-benzimidazol-1-yl)-N-(4-methoxyphenyl)-1,3,5-triazine-2,4-diamine]"
6,0.001 to 0.01,"Cc1ccc(Nc2nc(N)nc(-n3c(C)nc4c(F)cc(F)cc43)n2)cc1 [Cpd 186, 6-(4,6-difluoro-2-methyl-1H-benzimidazol-1-yl)-N-(4-methylphenyl)-1,3,5-triazine-2,4-diamine]"
7,0.1 to 3,"Cc1nc2c(F)cc(F)cc2n1-c1nc(N)nc(Nc2ccc(Cl)cc2)n1 [Cpd 187, N-(4-chlorophenyl)-6-(4,6-difluoro-2-methyl-1H-benzimidazol-1-yl)-1,3,5-triazine-2,4-diamine]"
8,0.001 to 0.01,"CCc1nc2c(F)cc(F)cc2n1-c1nc(N)nc(Nc2ccc(OC)cc2)n1 [Cpd 188, 6-(2-ethyl-4,6-difluoro-1H-benzimidazol-1-yl)-N-(4-methoxyphenyl)-1,3,5-triazine-2,4-diamine]"
9,0.01 to 0.1,"CCc1nc2c(F)cc(F)cc2n1-c1nc(N)nc(Nc2ccc(C)cc2)n1 [Cpd 189, 6-(2-ethyl-4,6-difluoro-1H-benzimidazol-1-yl)-N-(4-methylphenyl)-1,3,5-triazine-2,4-diamine]"
10,0.01 to 0.1,"CCc1nc2c(F)cc(F)cc2n1-c1nc(N)nc(Nc2ccc(Cl)cc2)n1 [Cpd 190, N-(4-chlorophenyl)-6-(2-ethyl-4,6-difluoro-1H-benzimidazol-1-yl)-1,3,5-triazine-2,4-diamine]"
11,0.01 to 0.1,"COc1ccc(Nc2nc(N)nc(-n3c(C4CC4)nc4cc(F)ccc43)n2)cc1 [Cpd 191, 6-(2-cyclopropyl-5-fluoro-1H-benzimidazol-1-yl)-N-(4-methoxyphenyl)-1,3,5-triazine-2,4-diamine]"
12,0.001 to 0.01,"Cc1ccc(Nc2nc(N)nc(-n3c(C4CC4)nc4cc(F)ccc43)n2)cc1 [Cpd 192, 6-(2-cyclopropyl-5-fluoro-1H-benzimidazol-1-yl)-N-(4-methylphenyl)-1,3,5-triazine-2,4-diamine]"
13,0.1 to 3,"Nc1nc(Nc2ccc(Cl)cc2)nc(-n2c(C3CC3)nc3cc(F)ccc32)n1 [Cpd 193, N-(4-chlorophenyl)-6-(2-cyclopropyl-5-fluoro-1H-benzimidazol-1-yl)-1,3,5-triazine-2,4-diamine]"
14,0.001 to 0.01,"COc1ccc(Nc2nc(N)nc(-n3c(C)nc4cc(F)c(F)cc43)n2)cc1 [Cpd 194, 6-(5,6-difluoro-2-methyl-1H-benzimidazol-1-yl)-N-(4-methoxyphenyl)-1,3,5-triazine-2,4-diamine]"
15,0.01 to 0.1,"Cc1ccc(Nc2nc(N)nc(-n3c(C)nc4cc(F)c(F)cc43)n2)cc1 [Cpd 195, 6-(5,6-difluoro-2-methyl-1H-benzimidazol-1-yl)-N-(4-methylphenyl)-1,3,5-triazine-2,4-diamine]"
16,0.1 to 3,"Cc1nc2cc(F)c(F)cc2n1-c1nc(N)nc(Nc2ccc(Cl)cc2)n1 [Cpd 196, N-(4-chlorophenyl)-6-(5,6-difluoro-2-methyl-1H-benzimidazol-1-yl)-1,3,5-triazine-2,4-diamine]"
17,0.1 to 3,"Cc1nc2ccccc2n1-c1nc(N)nc(Nc2ccc(Cl)c(F)c2)n1 [Cpd 197, N-(4-chloro-3-fluorophenyl)-6-(2-methyl-1H-benzimidazol-1-yl)-1,3,5-triazine-2,4-diamine]"
18,0.01 to 0.1,"CCc1nc2ccccc2n1-c1nc(N)nc(Nc2ccc(Cl)c(F)c2)n1 [Cpd 198, N-(4-chloro-3-fluorophenyl)-6-(2-ethyl-1H-benzimidazol-1-yl)-1,3,5-triazine-2,4-diamine]"
19,0.1 to 3,"Cc1nc2c(F)cc(F)cc2n1-c1nc(N)nc(Nc2ccc(Cl)c(F)c2)n1 [Cpd 199, N-(4-chloro-3-fluorophenyl)-6-(4,6-difluoro-2-methyl-1H-benzimidazol-1-yl)-1,3,5-triazine-2,4-diamine]"
20,0.1 to 3,"CCc1nc2c(F)cc(F)cc2n1-c1nc(N)nc(Nc2ccc(Cl)c(F)c2)n1 [Cpd 200, N-(4-chloro-3-fluorophenyl)-6-(2-ethyl-4,6-difluoro-1H-benzimidazol-1-yl)-1,3,5-triazine-2,4-diamine]"
